Experimental data as given in US20020137929A1, “1 - (3-heterocyclylphenyl) isothiourea, -isourea, -guanidine and -amidine herbicidal agents” (Intellectual Property Department, BASF Aktiengesellschaft, priority 1998, published 2002).

Tests used:
[1] = system: AMBEL (Ragweed, Common); assay: Postemergence herbicidal evaluation; assay type: in vivo, Ambrosia artemisifolia
How it was run: (§1)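 Rate range approx. 0.0156–0.500 kg/ha. Foliar application at 40 psi to ~2-week seedlings; surfactant 0.5% TWEEN 20 in 50/50 acetone/water. Evaluation 4–5 wk post-treatment by 0–9 visual injury score, means of replicate tests.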

[2] = system: CASOB (Sicklepod); assay: Postemergence herbicidal evaluation; assay type: in vivo, Cassia obtusifolia
How it was run: as §1

[3] = system: CHEAL (Lambsquarters, Common); assay: Postemergence herbicidal evaluation; assay type: in vivo, Chenopodium album
How it was run: as §1

[4] = system: IPOHE (Morningglory, Ivyleaf); assay: Postemergence herbicidal evaluation; assay type: in vivo, Ipomoea hederacea
How it was run: as §1

[5] = system: ECHCG (Barnyardgrass); assay: Postemergence herbicidal evaluation; assay type: in vivo, Echinochloa crus-galli
How it was run: as §1

[6] = system: GLXMAW (Soybean, Williams); assay: Postemergence herbicidal evaluation; assay type: in vivo, Glycine max, (L.) Merr. cv Williams
How it was run: as §1

[7] = system: TRZAWR (Wheat, Winter, cv Riband); assay: Postemergence herbicidal evaluation; assay type: in vivo, Triticum aestivum
How it was run: as §1

[8] = system: ABUTH (Velvetleaf); assay: Preemergence herbicidal evaluation; assay type: in vivo, Abutilon theophrasti; conditions: rated 4-5 weeks after treatment
How it was run: (§2)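 Greenhouse preemergence test: seed-soil mix sown on ~1 inch soil; aqueous acetone spray at equivalent of ~0.0156–0.500 kg/ha; greenhouse-held and watered; scored 0–9 visually at 4–5 weeks.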

[9] = system: AMBEL (Ragweed, Common); assay: Preemergence herbicidal evaluation; assay type: in vivo, Ambrosia artemisifolia; conditions: rated 4-5 weeks after treatment
How it was run: as §2

[10] = system: CASOB (Sicklepod); assay: Preemergence herbicidal evaluation; assay type: in vivo, Cassia obtusifolia; conditions: rated 4-5 weeks after treatment
How it was run: as §2

[11] = system: CHEAL (Lambsquarters, Common); assay: Preemergence herbicidal evaluation; assay type: in vivo, Chenopodium album; conditions: rated 4-5 weeks after treatment
How it was run: as §2

[12] = system: IPOHE (Morningglory, Ivyleaf); assay: Preemergence herbicidal evaluation; assay type: in vivo, Ipomoea hederacea; conditions: rated 4-5 weeks after treatment
How it was run: as §2

[13] = system: GLXMAW (Soybean, Williams); assay: Preemergence herbicidal evaluation; assay type: in vivo, Glycine max, (L.) Merr. cv Williams; conditions: rated 4-5 weeks after treatment
How it was run: as §2

[14] = system: ORYSAT (Rice, Tebonnet); assay: Preemergence herbicidal evaluation; assay type: in vivo, Oryza sativa, (L.) Tebonnet; conditions: rated 4-5 weeks after treatment
How it was run: as §2

[15] = system: MOOVA (Monochoria); assay: Preemergence weed control under flooded paddy conditions; assay type: in vivo, Monochoria vaginalis; conditions: rated 3-4 weeks after treatment
How it was run: (§3)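 Flooded-pot preemergence screen with silt loam and seeds in the upper 0.5 cm. Dose about 0.0313 to 0.500 kg/ha, delivered into flood water; visual 0-9 score after 3 to 4 weeks.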

[16] = system: SAGPY (Arrowhead (Pygmaea)); assay: as above; assay type: in vivo, Sagittaria pygmaea; conditions: rated 3-4 weeks after treatment
How it was run: as §3

## CCOC(=O)CN1C(=O)C(CC(=O)O)O/C1=N/c1cc(-n2c(=O)cc(C(F)(F)F)n(C)c2=O)c(F)cc1Cl (stereo not shown) [Compound 41, 2-{{2-Chloro-5-[3,6-dihydro-3-methyl-2,6-dioxo-4-(trifluoromethyl)-1(2H)-pyrimidinyl]-4-fluoro-phenyl}imino}-4-oxo-3,5-oxazolidinediacetic acid, 3-ethyl ester]
[1]; Rate 0.0158 kg/ha
  Postemergence herbicidal rating AMBEL: 9.0
[1]; Rate 0.0315 kg/ha
  Postemergence herbicidal rating AMBEL: 9.0
[1]; Rate 0.0630 kg/ha
  Postemergence herbicidal rating AMBEL: 9.0
[2]; Rate 0.0158 kg/ha
  Postemergence herbicidal rating CASOB: 1.0
[2]; Rate 0.0315 kg/ha
  Postemergence herbicidal rating CASOB: 1.0
[2]; Rate 0.0630 kg/ha
  Postemergence herbicidal rating CASOB: 5.0
[3]; Rate 0.0158 kg/ha
  Postemergence herbicidal rating CHEAL: 3.0
[3]; Rate 0.0315 kg/ha
  Postemergence herbicidal rating CHEAL: 7.0
[3]; Rate 0.0630 kg/ha
  Postemergence herbicidal rating CHEAL: 9.0
[4]; Rate 0.0158 kg/ha
  Postemergence herbicidal rating IPOHE: 9.0
[4]; Rate 0.0315 kg/ha
  Postemergence herbicidal rating IPOHE: 9.0
[4]; Rate 0.0630 kg/ha
  Postemergence herbicidal rating IPOHE: 9.0
[5]; Rate 0.0158 kg/ha
  Postemergence herbicidal rating ECHCG: 2.0
[5]; Rate 0.0315 kg/ha
  Postemergence herbicidal rating ECHCG: 7.0
[5]; Rate 0.0630 kg/ha
  Postemergence herbicidal rating ECHCG: 9.0
[6]; Rate 0.0158 kg/ha
  Postemergence herbicidal rating GLXMAW: 8.0
[6]; Rate 0.0315 kg/ha
  Postemergence herbicidal rating GLXMAW: 8.0
[6]; Rate 0.0630 kg/ha
  Postemergence herbicidal rating GLXMAW: 9.0
[7]; Rate 0.0158 kg/ha
  Postemergence herbicidal rating TRZAWR: 4.0
[7]; Rate 0.0315 kg/ha
  Postemergence herbicidal rating TRZAWR: 4.0
[7]; Rate 0.0630 kg/ha
  Postemergence herbicidal rating TRZAWR: 5.0
[8]; rate 0.0156 kg/ha
  Preemergence herbicidal rating ABUTH: 7.0
[8]; rate 0.0313 kg/ha
  Preemergence herbicidal rating ABUTH: 9.0
[8]; rate 0.0625 kg/ha
  Preemergence herbicidal rating ABUTH: 9.0
[8]; rate 0.1250 kg/ha
  Preemergence herbicidal rating ABUTH: 9.0
[8]; rate 0.2500 kg/ha
  Preemergence herbicidal rating ABUTH: 9.0
[9]; rate 0.0156 kg/ha
  Preemergence herbicidal rating AMBEL: 0.0
[9]; rate 0.0313 kg/ha
  Preemergence herbicidal rating AMBEL: 1.0
[9]; rate 0.0625 kg/ha
  Preemergence herbicidal rating AMBEL: 2.0
[9]; rate 0.1250 kg/ha
  Preemergence herbicidal rating AMBEL: 9.0
[9]; rate 0.2500 kg/ha
  Preemergence herbicidal rating AMBEL: 8.0
[10]; rate 0.0156 kg/ha
  Preemergence herbicidal rating CASOB: 0.0
[10]; rate 0.0313 kg/ha
  Preemergence herbicidal rating CASOB: 0.0
[10]; rate 0.0625 kg/ha
  Preemergence herbicidal rating CASOB: 0.0
[10]; rate 0.1250 kg/ha
  Preemergence herbicidal rating CASOB: 9.0
[10]; rate 0.2500 kg/ha
  Preemergence herbicidal rating CASOB: 9.0
[11]; rate 0.0156 kg/ha
  Preemergence herbicidal rating CHEAL: 0.0
[11]; rate 0.0313 kg/ha
  Preemergence herbicidal rating CHEAL: 4.0
[11]; rate 0.0625 kg/ha
  Preemergence herbicidal rating CHEAL: 9.0
[11]; rate 0.1250 kg/ha
  Preemergence herbicidal rating CHEAL: 9.0
[11]; rate 0.2500 kg/ha
  Preemergence herbicidal rating CHEAL: 9.0
[12]; rate 0.0156 kg/ha
  Preemergence herbicidal rating IPOHE: 0.0
[12]; rate 0.0313 kg/ha
  Preemergence herbicidal rating IPOHE: 0.0
[12]; rate 0.0625 kg/ha
  Preemergence herbicidal rating IPOHE: 7.0
[12]; rate 0.1250 kg/ha
  Preemergence herbicidal rating IPOHE: 9.0
[12]; rate 0.2500 kg/ha
  Preemergence herbicidal rating IPOHE: 9.0
[13]; rate 0.0156 kg/ha
  Preemergence herbicidal rating GLXMAW: 0.0
[13]; rate 0.0313 kg/ha
  Preemergence herbicidal rating GLXMAW: 1.0
[13]; rate 0.0625 kg/ha
  Preemergence herbicidal rating GLXMAW: 3.0
[13]; rate 0.1250 kg/ha
  Preemergence herbicidal rating GLXMAW: 2.0
[13]; rate 0.2500 kg/ha
  Preemergence herbicidal rating GLXMAW: 6.0
[14]; rate 0.0156 kg/ha
  Preemergence herbicidal rating ORYSAT: 0.0
[14]; rate 0.0313 kg/ha
  Preemergence herbicidal rating ORYSAT: 0.0
[14]; rate 0.0625 kg/ha
  Preemergence herbicidal rating ORYSAT: 0.0
[14]; rate 0.1250 kg/ha
  Preemergence herbicidal rating ORYSAT: 0.0
[14]; rate 0.2500 kg/ha
  Preemergence herbicidal rating ORYSAT: 0.0
[15]; 0.0313 kg/ha
  Herbicidal rating MOOVA: 6.0
[15]; 0.0625 kg/ha
  Herbicidal rating MOOVA: 9.0
[15]; 0.1250 kg/ha
  Herbicidal rating MOOVA: 9.0
[15]; 0.2500 kg/ha
  Herbicidal rating MOOVA: 9.0
[16]; 0.0313 kg/ha
  Herbicidal rating SAGPY: 0.0
[16]; 0.0625 kg/ha
  Herbicidal rating SAGPY: 0.0
[16]; 0.1250 kg/ha
  Herbicidal rating SAGPY: 0.0
[16]; 0.2500 kg/ha
  Herbicidal rating SAGPY: 6.0

## CCOC(=O)COc1ccccc1CC1S/C(=N/c2cc(-n3c(=O)cc(C(F)(F)F)n(C)c3=O)c(F)cc2Cl)N(CC(=O)OCC)C1=O (stereo not shown) [Compound 42, 2-{{2-Chloro-5-[3,6-dihydro-3-methyl-2,6-dioxo-4-(trifluoromethyl)-1(2H)-pyrimidinyl]-4-fluoro-phenyl}imino}-5-(o-hydroxybenzyl)-4-oxo-3-thiazolidineacetic acid, ethyl ester, ester with ethyl glycolate]
[1]; Rate 0.0158 kg/ha
  Postemergence herbicidal rating AMBEL: 9.0
[1]; Rate 0.0315 kg/ha
  Postemergence herbicidal rating AMBEL: 9.0
[1]; Rate 0.0630 kg/ha
  Postemergence herbicidal rating AMBEL: 9.0
[2]; Rate 0.0158 kg/ha
  Postemergence herbicidal rating CASOB: 4.0
[2]; Rate 0.0315 kg/ha
  Postemergence herbicidal rating CASOB: 3.0
[2]; Rate 0.0630 kg/ha
  Postemergence herbicidal rating CASOB: 7.0
[3]; Rate 0.0158 kg/ha
  Postemergence herbicidal rating CHEAL: 3.0
[3]; Rate 0.0315 kg/ha
  Postemergence herbicidal rating CHEAL: 9.0
[3]; Rate 0.0630 kg/ha
  Postemergence herbicidal rating CHEAL: 6.0
[4]; Rate 0.0158 kg/ha
  Postemergence herbicidal rating IPOHE: 9.0
[4]; Rate 0.0315 kg/ha
  Postemergence herbicidal rating IPOHE: 9.0
[4]; Rate 0.0630 kg/ha
  Postemergence herbicidal rating IPOHE: 9.0
[5]; Rate 0.0158 kg/ha
  Postemergence herbicidal rating ECHCG: 1.0
[5]; Rate 0.0315 kg/ha
  Postemergence herbicidal rating ECHCG: 2.0
[5]; Rate 0.0630 kg/ha
  Postemergence herbicidal rating ECHCG: 4.0
[6]; Rate 0.0158 kg/ha
  Postemergence herbicidal rating GLXMAW: 5.5
[6]; Rate 0.0315 kg/ha
  Postemergence herbicidal rating GLXMAW: 6.0
[6]; Rate 0.0630 kg/ha
  Postemergence herbicidal rating GLXMAW: 6.5
[7]; Rate 0.0158 kg/ha
  Postemergence herbicidal rating TRZAWR: 3.5
[7]; Rate 0.0315 kg/ha
  Postemergence herbicidal rating TRZAWR: 3.5
[7]; Rate 0.0630 kg/ha
  Postemergence herbicidal rating TRZAWR: 3.5
[8]; rate 0.0313 kg/ha
  Preemergence herbicidal rating ABUTH: 1.0
[8]; rate 0.0625 kg/ha
  Preemergence herbicidal rating ABUTH: 1.0
[8]; rate 0.1250 kg/ha
  Preemergence herbicidal rating ABUTH: 9.0
[8]; rate 0.2500 kg/ha
  Preemergence herbicidal rating ABUTH: 9.0
[9]; rate 0.0313 kg/ha
  Preemergence herbicidal rating AMBEL: 0.0
[9]; rate 0.0625 kg/ha
  Preemergence herbicidal rating AMBEL: 0.0
[9]; rate 0.1250 kg/ha
  Preemergence herbicidal rating AMBEL: 0.0
[9]; rate 0.2500 kg/ha
  Preemergence herbicidal rating AMBEL: 6.0
[10]; rate 0.0313 kg/ha
  Preemergence herbicidal rating CASOB: 0.0
[10]; rate 0.0625 kg/ha
  Preemergence herbicidal rating CASOB: 1.0
[10]; rate 0.1250 kg/ha
  Preemergence herbicidal rating CASOB: 0.0
[10]; rate 0.2500 kg/ha
  Preemergence herbicidal rating CASOB: 0.0
[11]; rate 0.0313 kg/ha
  Preemergence herbicidal rating CHEAL: 0.0
[11]; rate 0.0625 kg/ha
  Preemergence herbicidal rating CHEAL: 1.0
[11]; rate 0.1250 kg/ha
  Preemergence herbicidal rating CHEAL: 3.0
[11]; rate 0.2500 kg/ha
  Preemergence herbicidal rating CHEAL: 9.0
[12]; rate 0.0313 kg/ha
  Preemergence herbicidal rating IPOHE: 0.0
[12]; rate 0.0625 kg/ha
  Preemergence herbicidal rating IPOHE: 0.0
[12]; rate 0.1250 kg/ha
  Preemergence herbicidal rating IPOHE: 0.0
[12]; rate 0.2500 kg/ha
  Preemergence herbicidal rating IPOHE: 0.0
[13]; rate 0.0313 kg/ha
  Preemergence herbicidal rating GLXMAW: 0.0
[13]; rate 0.0625 kg/ha
  Preemergence herbicidal rating GLXMAW: 0.0
[13]; rate 0.1250 kg/ha
  Preemergence herbicidal rating GLXMAW: 1.0
[13]; rate 0.2500 kg/ha
  Preemergence herbicidal rating GLXMAW: 1.0
[14]; rate 0.0313 kg/ha
  Preemergence herbicidal rating ORYSAT: 0.0
[14]; rate 0.0625 kg/ha
  Preemergence herbicidal rating ORYSAT: 0.0
[14]; rate 0.1250 kg/ha
  Preemergence herbicidal rating ORYSAT: 0.0
[14]; rate 0.2500 kg/ha
  Preemergence herbicidal rating ORYSAT: 0.0
[15]; 0.0313 kg/ha
  Herbicidal rating MOOVA: 7.0
[15]; 0.0625 kg/ha
  Herbicidal rating MOOVA: 9.0
[15]; 0.1250 kg/ha
  Herbicidal rating MOOVA: 9.0
[15]; 0.2500 kg/ha
  Herbicidal rating MOOVA: 9.0
[16]; 0.0313 kg/ha
  Herbicidal rating SAGPY: 0.0
[16]; 0.0625 kg/ha
  Herbicidal rating SAGPY: 0.0
[16]; 0.1250 kg/ha
  Herbicidal rating SAGPY: 0.0
[16]; 0.2500 kg/ha
  Herbicidal rating SAGPY: 3.0
